From ChEMBL document CHEMBL1157348, “The alkaloid conessine and analogues as potent histamine H3 receptor antagonists” (J Med Chem, 2008)
pEC50, pIC50, pKi: −log10 of the molar value. Activity calls are given as the source filed them. No cut-off for these calls is given here.

Assays:
Histamine H3 receptor [1] = target: T1, Histamine H3 receptor (Homo sapiens, UniProt Q9Y5N1); experiment: Displacement of [3H]NAMH from human full length histamine H3 receptor expressed in rat C6 cells; format: cell-based
Histamine H3 receptor [2] = target: Histamine H3 receptor (Rattus norvegicus, UniProt Q9QYN8); experiment: Displacement of [3H]NAMH from histamine H3 receptor in rat cortex; conditions: read-out: Ki
Histamine H4 receptor = Histamine H4 receptor (Homo sapiens, UniProt Q9H3N8); experiment: Displacement of [3H]histamine from human histamine H4 receptor expressed in HEK cells; format: cell-based, HEK293; conditions: read-out: Ki
[3] = target: T2, Alpha-2C adrenergic receptor (Homo sapiens, UniProt P18825); experiment: Displacement of [3H]rauwolscine from human adrenergic alpha 2C4 receptor expressed in mouse LTK- cells; format: cell-based
T2 sequence (P18825 whole entry): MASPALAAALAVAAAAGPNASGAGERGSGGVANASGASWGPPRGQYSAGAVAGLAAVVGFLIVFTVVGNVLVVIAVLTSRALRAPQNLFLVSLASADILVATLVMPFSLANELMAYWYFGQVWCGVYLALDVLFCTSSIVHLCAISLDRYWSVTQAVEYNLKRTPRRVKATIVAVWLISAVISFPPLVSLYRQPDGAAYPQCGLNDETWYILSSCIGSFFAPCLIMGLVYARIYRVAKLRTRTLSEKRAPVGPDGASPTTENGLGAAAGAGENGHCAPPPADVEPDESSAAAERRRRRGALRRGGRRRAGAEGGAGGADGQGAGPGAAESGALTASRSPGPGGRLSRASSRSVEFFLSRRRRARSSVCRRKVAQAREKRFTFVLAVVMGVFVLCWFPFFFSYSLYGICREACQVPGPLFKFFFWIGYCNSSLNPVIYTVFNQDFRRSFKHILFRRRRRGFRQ

[4] = Oral bioavailability in rat; format: ADME, organism-based; conditions: in vivo
[5] = Binding affinity at dopamine receptor
[6] = Binding affinity at serotonin receptor
[7] = Binding affinity at cholinergic receptor
[8] = target: T3, Muscarinic acetylcholine receptor M1 (Homo sapiens, UniProt P11229); experiment: Binding affinity at muscarinic M1 receptor
T3 sequence (P11229 whole entry): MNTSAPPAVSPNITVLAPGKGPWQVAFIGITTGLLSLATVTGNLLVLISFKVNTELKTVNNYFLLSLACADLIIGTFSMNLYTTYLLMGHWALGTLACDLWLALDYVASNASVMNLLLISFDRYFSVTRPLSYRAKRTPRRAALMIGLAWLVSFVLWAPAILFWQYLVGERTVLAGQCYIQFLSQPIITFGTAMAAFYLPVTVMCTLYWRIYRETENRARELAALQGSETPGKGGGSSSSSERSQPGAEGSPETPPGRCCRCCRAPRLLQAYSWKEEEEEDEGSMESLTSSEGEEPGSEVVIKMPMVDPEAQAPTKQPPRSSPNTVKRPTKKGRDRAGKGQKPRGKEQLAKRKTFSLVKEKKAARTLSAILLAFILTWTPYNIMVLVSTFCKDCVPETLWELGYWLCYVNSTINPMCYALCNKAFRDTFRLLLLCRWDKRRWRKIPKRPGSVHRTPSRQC

[9] = Selectivity ratio for human adrenergic alpha 2C4 receptor over human H3 receptor
[10] = Half life in rat; format: ADME, organism-based; conditions: in vivo
[11] = Inhibition of CYP enzyme; format: ADME
Rattus norvegicus = experiment: Toxicity in rat assessed as CNS side effects at 1.3 to 13 mg/kg, ip; format: organism-based; parameters: dose 1.3-13 mg/kg, route intraperitoneal; conditions: in vivo
Estrogen receptor = target: T4, Estrogen receptor (Homo sapiens, UniProt P03372); experiment: Binding affinity at estrogen receptor
T4 sequence (P03372 whole entry): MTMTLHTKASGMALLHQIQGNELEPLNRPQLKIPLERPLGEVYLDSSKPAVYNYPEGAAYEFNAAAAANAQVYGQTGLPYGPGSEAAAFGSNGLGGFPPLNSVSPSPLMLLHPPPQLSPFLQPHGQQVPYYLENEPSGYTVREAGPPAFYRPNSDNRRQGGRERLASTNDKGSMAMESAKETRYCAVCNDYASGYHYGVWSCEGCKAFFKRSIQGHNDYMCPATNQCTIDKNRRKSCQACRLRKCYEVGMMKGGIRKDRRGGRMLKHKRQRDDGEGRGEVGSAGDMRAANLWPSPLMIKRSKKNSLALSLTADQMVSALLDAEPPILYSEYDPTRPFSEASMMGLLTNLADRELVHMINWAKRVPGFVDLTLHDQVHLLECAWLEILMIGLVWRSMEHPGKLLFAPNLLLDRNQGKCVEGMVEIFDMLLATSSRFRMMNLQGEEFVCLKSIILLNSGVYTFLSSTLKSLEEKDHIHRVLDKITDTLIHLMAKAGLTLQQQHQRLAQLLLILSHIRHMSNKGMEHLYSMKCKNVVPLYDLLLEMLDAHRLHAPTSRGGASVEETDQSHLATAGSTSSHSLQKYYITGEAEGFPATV

Progesterone receptor = target: T5, Progesterone receptor (Homo sapiens, UniProt P06401); experiment: Binding affinity at progesterone receptor
T5 sequence (P06401 whole entry): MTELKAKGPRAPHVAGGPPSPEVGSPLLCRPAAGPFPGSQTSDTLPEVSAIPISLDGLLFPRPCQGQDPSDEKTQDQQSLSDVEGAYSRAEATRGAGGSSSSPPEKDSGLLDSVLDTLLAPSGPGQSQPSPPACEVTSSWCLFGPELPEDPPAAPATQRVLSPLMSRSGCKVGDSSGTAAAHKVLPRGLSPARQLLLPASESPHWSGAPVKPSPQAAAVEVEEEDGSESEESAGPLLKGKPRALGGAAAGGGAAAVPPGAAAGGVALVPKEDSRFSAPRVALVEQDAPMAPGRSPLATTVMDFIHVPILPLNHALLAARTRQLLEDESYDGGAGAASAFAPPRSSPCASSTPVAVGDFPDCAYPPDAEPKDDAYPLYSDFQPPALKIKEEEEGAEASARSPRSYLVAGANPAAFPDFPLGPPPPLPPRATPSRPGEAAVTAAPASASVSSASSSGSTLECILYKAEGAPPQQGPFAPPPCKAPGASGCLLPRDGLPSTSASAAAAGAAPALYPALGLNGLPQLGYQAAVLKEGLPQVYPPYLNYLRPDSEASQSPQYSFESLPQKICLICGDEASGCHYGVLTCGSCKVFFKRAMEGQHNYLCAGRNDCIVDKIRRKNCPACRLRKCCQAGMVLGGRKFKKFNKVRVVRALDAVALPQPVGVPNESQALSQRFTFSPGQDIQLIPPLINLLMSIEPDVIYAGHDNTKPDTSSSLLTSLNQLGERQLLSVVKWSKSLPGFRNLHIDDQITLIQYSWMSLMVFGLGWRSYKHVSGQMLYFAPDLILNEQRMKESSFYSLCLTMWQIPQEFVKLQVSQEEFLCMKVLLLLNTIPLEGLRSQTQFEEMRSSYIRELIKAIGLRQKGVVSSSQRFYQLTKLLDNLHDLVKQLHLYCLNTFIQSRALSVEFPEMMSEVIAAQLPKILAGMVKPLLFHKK

Mus musculus = experiment: Increase in learning and memory performance in mouse at 0.01 mg/kg, ip after 24 hrs by passive avoidance test; format: functional, organism-based; parameters: dose 0.01 mg/kg
Histamine H3 receptor [12] = target: T1, Histamine H3 receptor; experiment: Antagonist activity at H3 receptor assessed as inhibition of [35S]gammaGTP binding relative to control

T1 sequence (Q9Y5N1 whole entry): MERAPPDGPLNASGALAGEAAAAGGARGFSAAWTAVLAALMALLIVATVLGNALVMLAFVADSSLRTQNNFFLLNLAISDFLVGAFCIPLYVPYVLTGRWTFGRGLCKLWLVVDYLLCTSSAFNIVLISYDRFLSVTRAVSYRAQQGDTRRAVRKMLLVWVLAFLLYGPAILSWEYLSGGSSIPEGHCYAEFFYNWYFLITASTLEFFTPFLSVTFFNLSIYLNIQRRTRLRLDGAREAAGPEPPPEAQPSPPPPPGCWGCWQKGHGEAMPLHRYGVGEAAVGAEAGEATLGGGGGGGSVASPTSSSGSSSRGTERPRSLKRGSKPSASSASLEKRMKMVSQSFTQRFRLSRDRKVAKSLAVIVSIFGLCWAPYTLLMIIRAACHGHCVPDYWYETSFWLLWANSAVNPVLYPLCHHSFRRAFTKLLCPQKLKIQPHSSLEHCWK
Sequence of Histamine H4 receptor (Q9H3N8 whole entry): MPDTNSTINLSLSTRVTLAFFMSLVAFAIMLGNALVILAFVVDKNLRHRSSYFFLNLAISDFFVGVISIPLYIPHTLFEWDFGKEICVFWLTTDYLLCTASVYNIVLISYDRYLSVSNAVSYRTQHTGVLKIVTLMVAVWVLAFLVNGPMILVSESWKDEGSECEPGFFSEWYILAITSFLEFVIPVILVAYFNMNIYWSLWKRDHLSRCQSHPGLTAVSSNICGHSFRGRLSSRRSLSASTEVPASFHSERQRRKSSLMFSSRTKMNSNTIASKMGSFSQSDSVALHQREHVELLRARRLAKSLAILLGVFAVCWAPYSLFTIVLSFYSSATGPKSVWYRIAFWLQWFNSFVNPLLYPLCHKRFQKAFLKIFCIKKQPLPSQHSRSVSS
Sequence of Histamine H3 receptor (Rattus norvegicus, UniProt Q9QYN8) (Q9QYN8 whole entry): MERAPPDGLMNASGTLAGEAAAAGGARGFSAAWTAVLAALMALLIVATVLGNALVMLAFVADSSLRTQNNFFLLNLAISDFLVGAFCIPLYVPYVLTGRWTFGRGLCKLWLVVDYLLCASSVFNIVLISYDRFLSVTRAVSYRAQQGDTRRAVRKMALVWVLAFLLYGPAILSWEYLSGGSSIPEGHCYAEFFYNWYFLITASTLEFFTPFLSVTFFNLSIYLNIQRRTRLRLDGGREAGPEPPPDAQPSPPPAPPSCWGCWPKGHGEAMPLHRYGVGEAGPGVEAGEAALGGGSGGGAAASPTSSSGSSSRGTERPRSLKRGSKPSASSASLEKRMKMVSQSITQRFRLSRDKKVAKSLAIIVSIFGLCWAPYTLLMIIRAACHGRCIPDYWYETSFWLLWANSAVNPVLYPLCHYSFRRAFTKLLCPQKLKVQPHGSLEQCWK

**Q.** With `CN[C@@H](C(=O)N(C)[C@H]1CC[C@@]2(C)C(=CC[C@H]3[C@@H]4CC[C@@H]5[C@H](C)N(C)C[C@@]54CC[C@@H]32)C1)C(C)C` as the compound, how does the pKi (Histamine H3 receptor [1]) read?
**A.** 9.68

**Q.** And the pKi (Histamine H3 receptor [2])?
**A.** 8.59

**Q.** And the pKi (Histamine H4 receptor)?
**A.** < 5.00

**Q.** What about the pKi [3] of the same compound?
**A.** 7.11

**Q.** What about the bioavailability [4] of the same compound?
**A.** 65%

**Q.** And the pKi [5]?
**A.** < 5.00

**Q.** What about the pKi [6] of the same compound?
**A.** < 5.00

**Q.** What about the pKi [7] of the same compound?
**A.** < 5.00

**Q.** And the pKi [8]?
**A.** 7.96

**Q.** And the Selectivity ratio [9]?
**A.** 370

**Q.** And the half-life [10]?
**A.** 77 h

**Q.** What about the pIC50 [11] of the same compound?
**A.** < 5.00

**Q.** And the Activity (Rattus norvegicus)?
**A.** Non-toxic

**Q.** What about the pKi (Estrogen receptor) of the same compound?
**A.** < 4.52

**Q.** What about the pKi (Progesterone receptor) of the same compound?
**A.** < 4.52

**Q.** What about the Activity (Mus musculus) of the same compound?
**A.** Active

**Q.** What about the pEC50 (Histamine H3 receptor [12]) of the same compound?
**A.** 8.48
